Assay results from patent US11203595B2, “Aza-indazole compounds for use in tendon and/or ligament injuries” (NOVARTIS AG, priority 2016, dated 2021).
Like-named read-outs stand apart in the source and are kept apart here.

What was measured:
[1] = system: Scleraxis (Scx) gene transcriptional activation, TT-D6 Scx-luciferase (ScxL) cell line; assay: SCX-LUC in vitro assay (scleraxis-luciferase reporter); type: cell-based, mouse; conditions: read-out: Scx-Luc (EC50 μM)
[2] = In-vivo release from microparticles in a rat model; conditions: PLGA microparticles
[3] = Cumulative release of microparticle formulations in PBS buffer (FIG. 1); type: physicochemical; conditions: incorporated into PLGA microparticles; following the initial burst; PBS buffer pH 7.4, 1% Tween 20
[4] = Mus musculus, 96 h, TT-D6 Scx-luciferase cells, 1 ng/ml TGFβ1, four days

Row | SMILES | EC50 [1, 4] | other results
1 | Nc1n[nH]c2ccc(-c3ccc(S(=O)(=O)NC4CCC(O)(C(F)(F)F)CC4)cc3Cl)nc12 [4-(3-amino-1H-pyrazolo[4,3-b]pyridin-5-yl)-3-chloro-N-((1R,4R)-4-hydroxy-4-(trifluoromethyl)cyclohexyl)benzenesulfonamide] |  | EC50 ([1]; TT-D6 Scx-luciferase cells, 1 ng/ml TGFβ1, four days): > 10 µM
2 | Nc1n[nH]c2ccc(-c3ccc(S(=O)(=O)N4CCC[C@H]4CO)cc3Cl)nc12 [(S)-(1-((4-(3-amino-1H-pyrazolo[4,3-b]pyridin-5-yl)-3-chlorophenyl)sulfonyl)pyrrolidin-2-yl)methanol] | > 10 µM | 
3 | Cc1cc(S(=O)(=O)N[C@H]2C[C@](O)(C(F)(F)F)C2)ccc1-c1ccc2[nH]nc(N)c2n1 [Example 2, 4-(3-amino-1H-pyrazolo[4,3-b]pyridin-5-yl)-N-((1s,3s)-3-hydroxy-3-(trifluoromethyl)cyclobutyl)-3-methylbenzenesulfonamide] |  | extended release in-vivo [2]: 4 weeks; period of steady state release of drug [3]: 21 days
4 | Nc1n[nH]c2ccc(-c3ccc(S(=O)(=O)N[C@H]4CCC[C@H]4O)cc3Cl)nc12 [Example 35, 4-(3-amino-1H-pyrazolo[4,3-b]pyridin-5-yl)-3-chloro-N-((1S,2R)-2-hydroxycyclopentyl)benzenesulfonamide] |  | EC50 ([1]; Mus musculus, 96 h): 2.73 µM
5 | Nc1n[nH]c2ccc(-c3ccc(NS(=O)(=O)c4ccccc4)cc3Cl)nc12 [Example 46, N-(4-(3-amino-1H-pyrazolo[4,3-b]pyridin-5-yl)-3-chlorophenyl)benzenesulfonamide] | 0.01 µM | 
6 | Nc1n[nH]c2ccc(-c3ccc(S(=O)(=O)NC4CCS(=O)(=O)CC4)cc3Cl)nc12 [Example 50, 4-(3-amino-1H-pyrazolo[4,3-b]pyridin-5-yl)-3-chloro-N-(1,1-dioxidotetrahydro-2H-thiopyran-4-yl)benzenesulfonamide] | > 10 µM | 
7 | CNS(=O)(=O)c1ccc(S(=O)(=O)Nc2ccc(-c3ccc4[nH]nc(N)c4n3)c(Cl)c2)cc1 [Example 76, N1-(4-(3-amino-1H-pyrazolo[4,3-b]pyridin-5-yl)-3-chlorophenyl)-N4-methylbenzene-1,4-disulfonamide] | 0.003 µM | 
